Measured values reported in ChEMBL document CHEMBL6182906, “Discovery, total synthesis, and biological evaluation of tyrcinnamins as antibacterial agents and tyrosinase activators” (Eur J Med Chem, 2025).
Converted amounts (≈) assume the structure as drawn. Blank lines part the entries; values can stand above or below the compound they belong to. The source made the active and inactive calls. The rule behind the calls is not given here.

Legend:
[1] = test system: L02; experiment: Induction of apoptosis in human LO2 cells assessed as necrotic cells at 100 uM incubated for 48 hrs by Annexin V-FITC/PI staining based flow cytometry (reference value: 1.12 %); format: functional
[2] = test system: L02; experiment: Induction of apoptosis in human LO2 cells assessed as viable cells at 50 uM incubated for 48 hrs by Annexin V-FITC/PI staining based flow cytometry (reference value: 98.0 %); format: functional; settings: read-out: Activity
[3] = test system: L02; experiment: Induction of apoptosis in human LO2 cells assessed as late apoptotic cells at 100 uM incubated for 48 hrs by Annexin V-FITC/PI staining based flow cytometry (reference value: 0.044 %); format: functional
[4] = test system: L02; experiment: Induction of apoptosis in human LO2 cells assessed as necrotic cells at 50 uM incubated for 48 hrs by Annexin V-FITC/PI staining based flow cytometry (reference value: 1.12 %); format: functional
[5] = test system: Enterococcus faecium; experiment: Antibacterial activity against Enterococcus faecium assessed as bacterial growth inhibition incubated for 16 hrs by broth microdilution assay; format: functional
[6] = test system: L02; experiment: Induction of apoptosis in human LO2 cells assessed as viable cells at 100 uM incubated for 48 hrs by Annexin V-FITC/PI staining based flow cytometry (reference value: 98.0 %); format: functional; settings: read-out: Activity
[7] = test system: L02; experiment: Induction of apoptosis in human LO2 cells assessed as early apoptotic cells at 100 uM incubated for 48 hrs by Annexin V-FITC/PI staining based flow cytometry (reference value: 0.85 %); format: functional
[8] = test system: Escherichia coli; experiment: Antibacterial activity against Escherichia coli ATCC8739 assessed as bacterial growth inhibition up to 100 uM incubated for 16 hrs by broth microdilution assay; format: functional, organism-based
[9] = test system: L02; experiment: Induction of apoptosis in human LO2 cells assessed as late apoptotic cells at 12.5 uM incubated for 48 hrs by Annexin V-FITC/PI staining based flow cytometry (reference value: 0.044 %); format: functional
[10] = test system: Bacillus subtilis; experiment: Antibacterial activity against Bacillus subtilis ATCC6633 assessed as bacterial growth inhibition incubated for 16 hrs by broth microdilution assay; format: functional
[11] = test system: L02; experiment: Induction of apoptosis in human LO2 cells assessed as early apoptotic cells at 50 uM incubated for 48 hrs by Annexin V-FITC/PI staining based flow cytometry (reference value: 0.85 %); format: functional
[12] = test system: Staphylococcus aureus; experiment: Antibacterial activity against Staphylococcus aureus ATCC6538 assessed as bacterial growth inhibition incubated for 16 hrs by broth microdilution assay; format: functional
[13] = test system: HCT-116; experiment: Cytotoxicity against human HCT-116 cells at 100 uM incubated for 72 hrs by CCK8 assay; format: toxicity, cell-based; settings: hct-116, 72 h
[14] = test system: Staphylococcus aureus; experiment: Antibacterial activity against methicillin-resistant Staphylococcus aureus assessed as bacterial growth inhibition incubated for 16 hrs by broth microdilution assay; format: functional
[15] = test system: Enterococcus faecalis; experiment: Antibacterial activity against Enterococcus faecalis assessed as bacterial growth inhibition incubated for 16 hrs by broth microdilution assay; format: functional
[16] = target: T1, Mushroom tyrosinase (Agaricus bisporus) (UniProt O42713+Q00024+C7FF04+C7FF05); experiment: Competitive binding affinity to mushroom tyrosinase at 0.1 mM in presence of 0.25 mM L-DOPA; format: protein assay
[17] = target: T1, Mushroom tyrosinase (Agaricus bisporus); experiment: Inhibition of mushroom tyrosinase using L-DOPA as substrate up to 1 mM preincubated for 10 mins followed by substrate addition measured after 20 mins by absorbance based assay; format: protein assay; settings: time 30.0 min
[18] = target: T1, Mushroom tyrosinase (Agaricus bisporus); experiment: Competitive binding affinity to mushroom tyrosinase at 0.5 to 1 mM in presence of 0.25 mM L-DOPA; format: protein assay; settings: filed as activator, dose 0.5-1 mM
[19] = test system: L02; experiment: Cytotoxicity against human LO2 cells at 100 uM incubated for 72 hrs by CCK8 assay; format: toxicity, cell-based; settings: l02, 72 h
[20] = test system: L02; experiment: Induction of apoptosis in human LO2 cells assessed as late apoptotic cells at 50 uM incubated for 48 hrs by Annexin V-FITC/PI staining based flow cytometry (reference value: 0.044 %); format: functional
[21] = test system: L02; experiment: Induction of apoptosis in human LO2 cells assessed as necrotic cells at 12.5 uM incubated for 48 hrs by Annexin V-FITC/PI staining based flow cytometry (reference value: 1.12 %); format: functional
[22] = test system: L02; experiment: Induction of apoptosis in human LO2 cells assessed as viable cells at 12.5 uM incubated for 48 hrs by Annexin V-FITC/PI staining based flow cytometry (reference value: 98.0 %); format: functional; settings: read-out: Activity
[23] = test system: Pseudomonas aeruginosa; experiment: Antibacterial activity against Pseudomonas aeruginosa ATCC27853 assessed as bacterial growth inhibition up to 100 uM incubated for 16 hrs by broth microdilution assay; format: functional, organism-based
[24] = Hemolytic activity against chicken erythrocytes up to 100 uM incubated for 1 hr by absorbance based assay; format: toxicity, cell-based, Gallus gallus, Erythrocyte; settings: read-out: Activity
[25] = test system: Staphylococcus epidermidis; experiment: Antibacterial activity against Staphylococcus epidermidis assessed as bacterial growth inhibition incubated for 16 hrs by broth microdilution assay; format: functional
[26] = test system: HaCaT; experiment: Cytotoxicity against human HaCaT cells at 100 uM incubated for 72 hrs by CCK8 assay; format: toxicity, cell-based
[27] = test system: Staphylococcus aureus; experiment: Antibacterial activity against Staphylococcus aureus ATCC29213 assessed as bacterial growth inhibition incubated for 16 hrs by broth microdilution assay; format: functional
[28] = test system: L02; experiment: Induction of apoptosis in human LO2 cells assessed as early apoptotic cells at 12.5 uM incubated for 48 hrs by Annexin V-FITC/PI staining based flow cytometry (reference value: 0.85 %); format: functional
[29] = target: T1, Mushroom tyrosinase (Agaricus bisporus); experiment: Activation of mushroom tyrosinase using L-DOPA as substrate at 1 mM preincubated for 10 mins followed by substrate addition measured after 20 mins by absorbance based assay; format: protein assay; settings: filed as activator, time 30.0 min
[30] = test system: Staphylococcus aureus; experiment: Antibacterial activity against Staphylococcus aureus ATCC6538 assessed as bacterial growth inhibition at 100 uM incubated for 12 hrs by spot assay; format: functional, organism-based
[31] = test system: Staphylococcus aureus; experiment: Antibacterial activity against Staphylococcus aureus ATCC6538 assessed as bacterial growth inhibition at 100 uM incubated for 12 hrs by resazurin assay; format: functional, organism-based
[32] = Hemolytic activity against chicken erythrocytes at 50 uM incubated for 1 hr by absorbance based assay; format: toxicity, cell-based, Gallus gallus, Erythrocyte; settings: read-out: Activity

SMILES: CCC/C=C\c1ccccc1/C=C/C(=O)N[C@@H](Cc1ccc(O)cc1)C(=O)OC
Activity [1]: 1.34%
viability at 50 µM [2]: 97.9%
Activity [3]: 0.034%
Activity [4]: 1.33%
MIC [5]: 20 µM (≈ 7.87 µg/mL)
viability at 100 µM [6]: 97.7%
Activity [7]: 0.94%
inhibition [8]: inactive
Activity [9]: 0.041%
MIC [10]: 12.5 µM (≈ 4.92 µg/mL)
Activity [11]: 0.74%
MIC [12]: 12.5 µM (≈ 4.92 µg/mL)
Activity [13]: Non-toxic
MIC [14]: 20 µM (≈ 7.87 µg/mL)
MIC [15]: 20 µM (≈ 7.87 µg/mL)
Activity [16]: inactive
inhibition [17]: inactive
Activity [18]: Active
Activity [19]: Non-toxic
Activity [20]: 0.024%
Activity [21]: 1.23%
viability at 12.5 µM [22]: 98.5%
inhibition [23]: inactive
hemolysis at 1 h, up to 100 µM [24]: < 5%
MIC [25]: > 40 µM
Activity [26]: Non-toxic
MIC [27]: 20 µM (≈ 7.87 µg/mL)
Activity [28]: 0.2%
Emax [29]: > 300%

SMILES: CN[C@H](CC(C)C)C(=O)N[C@H]1C(=O)N[C@@H](CC(N)=O)C(=O)N[C@H]2C(=O)N[C@H]3C(=O)N[C@H](C(=O)N[C@H](C(=O)O)c4cc(O)cc(O)c4-c4cc3ccc4O)[C@H](O)c3ccc(c(Cl)c3)Oc3cc2cc(c3O[C@@H]2O[C@H](CO)[C@@H](O)[C@H](O)[C@H]2O[C@H]2C[C@](C)(N)[C@H](O)[C@H](C)O2)Oc2ccc(cc2Cl)[C@H]1O [VANCOMYCIN]
MIC [5]: 2.8 µM (≈ 4.06 µg/mL)
MIC [14]: 2.8 µM (≈ 4.06 µg/mL)
MIC [15]: 2.8 µM (≈ 4.06 µg/mL)
MIC [27]: 1.4 µM (≈ 2.03 µg/mL)

SMILES: CCC/C=C\c1ccccc1/C=C/C(=O)N[C@@H](Cc1ccccc1)C(=O)OC
inhibition [8]: inactive
MIC [10]: > 100 µM
MIC [12]: > 100 µM
inhibition [23]: inactive

SMILES: CCC/C=C\c1ccccc1/C=C/C(=O)N[C@@H](Cc1c[nH]c2ccccc12)C(=O)OC
inhibition [8]: inactive
MIC [10]: > 100 µM
MIC [12]: > 100 µM
inhibition [23]: inactive

SMILES: CCC/C=C\c1ccccc1/C=C/C(=O)N[C@@H](Cc1ccc(O)cc1)C(=O)O
inhibition [8]: inactive
MIC [10]: > 100 µM
MIC [12]: > 100 µM
inhibition [17]: inactive
inhibition [30]: inactive
inhibition [31]: inactive
inhibition [23]: inactive

SMILES: CCC/C=C\c1ccccc1/C=C/C(=O)O
inhibition [8]: inactive
MIC [10]: > 100 µM
MIC [12]: > 100 µM
inhibition [23]: inactive

SMILES: COC(=O)[C@H](Cc1ccc(O)cc1)NC(=O)/C=C/c1ccccc1
inhibition [8]: inactive
MIC [10]: > 100 µM
MIC [12]: > 100 µM
inhibition [17]: inactive
inhibition [23]: inactive

Second part, led by results:

MIC [10]: > 100 µM
MIC [12]: > 100 µM
inhibition [17]: inactive
SMILES: CCC/C=C\c1ccccc1/C=C/C(=O)N[C@H](Cc1ccc(O)cc1)C(=O)O
inhibition [8]: inactive
inhibition [30]: inactive
inhibition [31]: inactive
inhibition [23]: inactive

MIC [10]: 10 µM (≈ 3.34 µg/mL)
MIC [12]: 0.05 µM (≈ 0.0167 µg/mL)
SMILES: CC1(C)S[C@@H]2[C@H](NC(=O)Cc3ccccc3)C(=O)N2[C@H]1C(=O)O [PENICILLIN G]

MIC [10]: > 100 µM
MIC [12]: 100 µM (≈ 39.3 µg/mL)
inhibition [17]: inactive
SMILES: COC(=O)[C@H](Cc1ccc(O)cc1)NC(=O)/C=C/c1ccccc1C(F)(F)F
inhibition [8]: inactive
inhibition [23]: inactive

MIC [10]: 100 µM (≈ 40.4 µg/mL)
MIC [12]: 100 µM (≈ 40.4 µg/mL)
inhibition [17]: inactive
SMILES: COC(=O)[C@H](Cc1ccc(O)cc1)NC(=O)/C=C/c1ccccc1Br
inhibition [8]: inactive
inhibition [23]: inactive

MIC [10]: 12.5 µM (≈ 4.92 µg/mL)
MIC [12]: 12.5 µM (≈ 4.92 µg/mL)
inhibition [17]: inactive
Emax [29]: > 300%
SMILES: CCC/C=C\c1ccccc1/C=C/C(=O)N[C@H](Cc1ccc(O)cc1)C(=O)OC
inhibition [8]: inactive
Activity [13]: Toxic
Activity [19]: Toxic
hemolysis at 1 h, 50 µM [32]: > 5%
inhibition [23]: inactive
Activity [26]: Toxic

MIC [10]: 100 µM (≈ 35.5 µg/mL)
MIC [12]: 100 µM (≈ 35.5 µg/mL)
inhibition [17]: Active
SMILES: COC(=O)[C@H](Cc1ccc(O)cc1)NC(=O)/C=C/c1ccccc1OC
inhibition [8]: inactive
inhibition [23]: inactive

MIC [10]: 100 µM (≈ 34.3 µg/mL)
MIC [12]: > 100 µM
inhibition [17]: inactive
SMILES: COC(=O)[C@H](Cc1ccc(O)cc1)NC(=O)/C=C/c1ccccc1F
inhibition [8]: inactive
inhibition [23]: inactive

MIC [10]: 100 µM (≈ 33.9 µg/mL)
MIC [12]: > 100 µM
inhibition [17]: inactive
Emax [29]: > 300%
SMILES: COC(=O)[C@H](Cc1ccc(O)cc1)NC(=O)/C=C/c1ccccc1C
inhibition [8]: inactive
inhibition [23]: inactive

MIC [10]: 100 µM (≈ 30.1 µg/mL)
MIC [12]: > 100 µM
SMILES: CCC/C=C\c1ccccc1/C=C/C(=O)N[C@@H](C)C(=O)OC
inhibition [8]: inactive
inhibition [23]: inactive
